Source: BindingDB's records for doi:10.1016/j.bmcl.2012.04.093 (University of Lisbon, 2012)

Biological target: T1, Neutrophil elastase (Homo sapiens, UniProt P08246)
T1 sequence (P08246 whole entry): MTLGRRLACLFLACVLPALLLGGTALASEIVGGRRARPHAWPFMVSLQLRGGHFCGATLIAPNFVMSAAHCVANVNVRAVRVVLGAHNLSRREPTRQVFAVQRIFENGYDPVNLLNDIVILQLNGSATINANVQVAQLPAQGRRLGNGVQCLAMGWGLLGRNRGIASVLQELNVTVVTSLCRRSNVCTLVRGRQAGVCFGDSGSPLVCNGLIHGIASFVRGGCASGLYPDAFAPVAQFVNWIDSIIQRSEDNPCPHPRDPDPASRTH
Assay: Inhibition of human neutrophil elastase using chromogenic substrate (N-MeOSuc-Ala-Ala-Pro-Val-p-nitroanilide after 120 mins

Compound: Cc1oc(=O)n(Cc2ccccc2)c1O
- IC50: > 500 µM

Compound: COc1ccc(C(=O)n2c(O)c(C)oc2=O)cc1
- IC50: > 500 µM
